Where “and” joins values, the source holds several entries; their conditions need not be identical. Equal values may be shown once.
Test: xn = mol fraction of the nth substance listed
Details: for electrical conductivity: 101.3 kPa

CCCCCCCCn1cc[n+](C)c1.[Cl-] + OC[C@H]1O[C@@](CO)(O[C@H]2O[C@H](CO)[C@@H](O)[C@H](O)[C@H]2O)[C@@H](O)[C@@H]1O + O
298.15 K
Details	electrical conductivity
x2 = 0, x1 = 4.96e-06	0.00314 S/m
x2 = 0, x1 = 7.53e-06	0.00467 S/m
x2 = 0, x1 = 1.002e-05	0.00613 S/m
x2 = 0, x1 = 1.247e-05	0.00756 S/m
x2 = 0, x1 = 1.481e-05	0.00893 S/m
x2 = 0, x1 = 1.716e-05	0.01029 S/m
x2 = 0, x1 = 1.95e-05	0.0116 S/m
x2 = 0, x1 = 2.177e-05	0.0129 S/m
x2 = 0, x1 = 2.424e-05	0.01436 S/m
x2 = 0, x1 = 2.667e-05	0.0158 S/m
x2 = 0, x1 = 2.939e-05	0.0173 S/m
x2 = 0.003591, x1 = 1.259e-05	0.00669 S/m
x2 = 0.003591, x1 = 1.587e-05	0.00832 S/m
x2 = 0.003591, x1 = 1.902e-05	0.00988 S/m
x2 = 0.003591, x1 = 2.222e-05	0.0114 S/m
x2 = 0.003591, x1 = 2.521e-05	0.0129 S/m
x2 = 0.003591, x1 = 2.835e-05	0.0144 S/m
x2 = 0.003591, x1 = 3.142e-05	0.0159 S/m
x2 = 0.003591, x1 = 3.424e-05	0.01727 S/m
x2 = 0.003591, x1 = 3.712e-05	0.0186 S/m
x2 = 0.007156, x1 = 1.254e-05	0.00531 S/m
x2 = 0.007156, x1 = 1.623e-05	0.00676 S/m
x2 = 0.007156, x1 = 1.993e-05	0.00821 S/m
x2 = 0.007156, x1 = 2.37e-05	0.00967 S/m
x2 = 0.007156, x1 = 2.738e-05	0.0111 S/m
x2 = 0.007156, x1 = 3.084e-05	0.01242 S/m
x2 = 0.007156, x1 = 3.403e-05	0.0137 S/m
x2 = 0.007156, x1 = 3.72e-05	0.0149 S/m
x2 = 0.007156, x1 = 4.042e-05	0.01608 S/m
x2 = 0.007156, x1 = 4.288e-05	0.01701 S/m
x2 = 0.0107, x1 = 8.12e-06	0.00311 S/m
x2 = 0.0107, x1 = 1.295e-05	0.00472 S/m
x2 = 0.0107, x1 = 1.756e-05	0.00623 S/m
x2 = 0.0107, x1 = 2.181e-05	0.00762 S/m
x2 = 0.0107, x1 = 2.602e-05	0.00898 S/m
x2 = 0.0107, x1 = 3.017e-05	0.0103 S/m
x2 = 0.0107, x1 = 3.408e-05	0.0115 S/m
x2 = 0.0107, x1 = 3.778e-05	0.0127 S/m
x2 = 0.0107, x1 = 4.136e-05	0.0138 S/m
x2 = 0.0107, x1 = 4.484e-05	0.0149 S/m
x2 = 0.0107, x1 = 4.818e-05	0.016 S/m
x2 = 0.01421, x1 = 9.43e-06	0.00302 S/m
x2 = 0.01421, x1 = 1.407e-05	0.00432 S/m
x2 = 0.01421, x1 = 1.861e-05	0.00559 S/m
x2 = 0.01421, x1 = 2.29e-05	0.00678 S/m
x2 = 0.01421, x1 = 2.718e-05	0.00795 S/m
x2 = 0.01421, x1 = 3.134e-05	0.00908 S/m
x2 = 0.01421, x1 = 3.512e-05	0.0101 S/m
x2 = 0.01421, x1 = 3.883e-05	0.0111 S/m
x2 = 0.01421, x1 = 4.258e-05	0.0121 S/m
x2 = 0.01421, x1 = 4.643e-05	0.01312 S/m
x2 = 0.0177, x1 = 7.66e-06	0.00219 S/m
x2 = 0.0177, x1 = 1.502e-05	0.00393 S/m
x2 = 0.0177, x1 = 2.194e-05	0.00554 S/m
x2 = 0.0177, x1 = 2.846e-05	0.00705 S/m
x2 = 0.0177, x1 = 3.471e-05	0.00848 S/m
x2 = 0.0177, x1 = 4.134e-05	0.00996 S/m
x2 = 0.0177, x1 = 4.728e-05	0.01128 S/m
x2 = 0.0177, x1 = 5.36e-05	0.0127 S/m
x2 = 0.0177, x1 = 5.928e-05	0.0139 S/m
x2 = 0.0177, x1 = 6.496e-05	0.01517 S/m
x2 = 0.02116, x3 = 0.9788	0.0133 S/m and 0.0143 S/m

CCCCCCCCCCCCCCCC[N+](C)(C)C.[Br-] + OC[C@H]1O[C@H](O[C@H]2[C@H](O)[C@@H](O)C(O)O[C@@H]2CO)[C@H](O)[C@@H](O)[C@@H]1O + O
viscosity [mPa·s], 100 kPa
Details	298.15 K	308.15 K	318.15 K
x1 = 7.21e-06, x2 = 0	0.896	0.742	0.617
x1 = 1.442e-05, x2 = 0	0.898	0.744	0.617
x1 = 2.162e-05, x2 = 0	0.9	0.745	0.617

CCCCCCCCn1cc[n+](C)c1.N#C[S-] + [Br-].[Li+] + CN1CCCC1=O
298.15 K, 101 kPa
Details	viscosity [mPa·s]
x1 = 0.001194, x2 = 0.02592	2.51
x1 = 0.001279, x2 = 0.05082	3.301
x1 = 0.001363, x2 = 0.07495	4.627
x1 = 0.002361, x2 = 0.07487	4.663
x1 = 0.002564, x2 = 0.05075	3.33
x1 = 0.002749, x2 = 0.02588	2.538
x1 = 0.003543, x2 = 0.07478	4.688
x1 = 0.003719, x2 = 0.05069	3.358
x1 = 0.003898, x2 = 0.02585	2.568
x1 = 0.004852, x2 = 0.05063	3.389
x1 = 0.005129, x2 = 0.07466	4.714
x1 = 0.00561, x2 = 0.02581	2.544
x1 = 0.005681, x2 = 0.05059	3.416
x1 = 0.006324, x2 = 0.07457	4.741
x1 = 0.006743, x2 = 0.02578	2.6
x1 = 0.007583, x2 = 0.07448	4.77
x1 = 0.007954, x2 = 0.05048	3.441
x1 = 0.008125, x2 = 0.02574	2.622
x1 = 0.008906, x2 = 0.07438	4.799
x1 = 0.009097, x2 = 0.05042	3.471
x1 = 0.009222, x2 = 0.02572	2.651
x1 = 0.009986, x2 = 0.05037	3.503
x1 = 0.01013, x2 = 0.02569	2.674
x1 = 0.01054, x2 = 0.07426	4.824

CCCCCC[n+]1ccn(C)c1.N#C[S-] + [Br-].[Li+] + CN1CCCC1=O
298.15 K, 101 kPa
Details	viscosity [mPa·s]
x1 = 0.001485, x2 = 0.05195	3.247
x1 = 0.00149, x2 = 0.02731	2.398
x1 = 0.001549, x2 = 0.07614	4.405
x1 = 0.003034, x2 = 0.02727	2.411
x1 = 0.003327, x2 = 0.07601	4.433
x1 = 0.003386, x2 = 0.05185	3.276
x1 = 0.004842, x2 = 0.05177	3.304
x1 = 0.004935, x2 = 0.02722	2.44
x1 = 0.004954, x2 = 0.07588	4.462
x1 = 0.005883, x2 = 0.02719	2.46
x1 = 0.006254, x2 = 0.0517	3.332
x1 = 0.006429, x2 = 0.07577	4.49
x1 = 0.007608, x2 = 0.02715	2.485
x1 = 0.007678, x2 = 0.07567	4.518
x1 = 0.007769, x2 = 0.05162	3.36
x1 = 0.009204, x2 = 0.07556	4.575
x1 = 0.009231, x2 = 0.05154	3.388
x1 = 0.009463, x2 = 0.0271	2.489
x1 = 0.009859, x2 = 0.05151	3.416
x1 = 0.01038, x2 = 0.02707	2.534
x1 = 0.01063, x2 = 0.07545	4.603
x1 = 0.01211, x2 = 0.02702	2.541
x1 = 0.01221, x2 = 0.07533	4.631
x1 = 0.01242, x2 = 0.05138	3.444

CCCCCCCCn1cc[n+](C)c1.N#C[S-] + [Cl-].[Li+] + CN1CCCC1=O
298.15 K, 101 kPa
Details	viscosity [mPa·s]
x1 = 0.001139, x2 = 0.07166	3.748
x1 = 0.001259, x2 = 0.03751	2.694
x1 = 0.001303, x2 = 0.1042	5.098
x1 = 0.002343, x2 = 0.1041	5.122
x1 = 0.002465, x2 = 0.07157	3.763
x1 = 0.002516, x2 = 0.03747	2.708
x1 = 0.00365, x2 = 0.104	5.151
x1 = 0.003672, x2 = 0.03742	2.735
x1 = 0.003977, x2 = 0.07146	3.796
x1 = 0.004888, x2 = 0.1039	5.175
x1 = 0.005019, x2 = 0.03737	2.761
x1 = 0.005107, x2 = 0.07138	3.83
x1 = 0.00605, x2 = 0.1038	5.201
x1 = 0.006235, x2 = 0.0713	3.857
x1 = 0.006361, x2 = 0.03732	2.789
x1 = 0.007163, x2 = 0.1036	5.219
x1 = 0.00736, x2 = 0.07122	3.892
x1 = 0.007605, x2 = 0.03728	2.811
x1 = 0.00842, x2 = 0.1035	5.236
x1 = 0.00867, x2 = 0.07112	3.932
x1 = 0.008845, x2 = 0.03723	2.84
x1 = 0.009774, x2 = 0.1034	5.256
x1 = 0.009789, x2 = 0.07104	3.97
x1 = 0.01008, x2 = 0.03718	2.854
